Measurements reported in patent US9618511B2, “Methods and compositions for treating alzheimer's disease” (Eleanore Bennett Charitable Trust #2, priority 2008, dated 2017).
Entries after “also recorded” stand apart in the source; their conditions may differ.

Columns and labels:
C2C12 myotubes = assay: Extracellular peptide or insulin treatment of C2C12 myotubes, western blot of Akt signaling; assay type: cell-based, mouse
Experimental: The prior cell-based and in vitro experiments are relevant to […] Aβ effects. To determine the specificity of Akt inhibition by […] Aβ, C2C12 myotubes were cultured, and treated with extracellular Aβ25-35, Aβ35-25, Aβ1-42 and Aβ42-1 for 24 hours. In the last 30 minutes before harvest, insulin was added (0.1 μg/ml). While p-Akt (Ser473) and p-GSK-3 α/β levels were increased by insulin treatment (FIG. 9C, lane 2 vs. 1), they were not affected by any of the Aβ treatments. […] There were also no significant changes in p-Akt (Ser473) levels (data not shown). […] PDK itself is subject to phosphorylation (e.g., at Ser 241) and several authors feel that it is constitutively phosphorylated and thus ‘primed’ (Casamayor, A., Morrice, N. A., and Alessi, D. R., 1999, Phosphorylation of Ser-241 is essential for the activity of 3-phosphoinositide-dependent protein kinase-1: identification of five sites of phosphorylation in vivo, Biochem J 342 (Pt 2):287-292). The experiments described herein indicate that p-PDK levels are constitutively high in C2C12 cells and not boosted further by insulin action (FIG. 9E, top). p-PDK levels were not modulated by extracellular (FIG. 9E lower panel) or intracellular Aβ expression (not shown).
In FIG. 9C C2C12 myotubes were bath exposed to AP25-35, reverse AP35-25, AP1-42 and reverse Aβ42-1 peptides for 24 hours before treatment with insulin (0.1 μg/ml, 15 min) Whole cell extracts were subjected to Western analysis for p-Akt (Ser473) (Akt activation) and total Akt levels (top) as well as for endogenous levels of pGSK-3a/p, indicative of Akt activity, and total GSK-3β (lower two blots). […] The increase was not affected by pre-treatment with extracellular AR.
In FIG. 9D C2C12 myotube cultures were exposed to increasing doses of A[i1-42 (0, 10 and 25 μM) for 2 hours before treatment with insulin (0, 20, 100 and 500 ng/ml) for 15 min Harvested cell extracts were used for western blot for p-Akt (Thr308).

[1] = tested on: PDK-dependent activation of Akt1; assay: In vitro PDK-dependent Akt1 phosphorylation and activity assay (immunoprecipitated PDK1 and Akt1, GSK-3 fusion protein substrate); assay type: biochemical, human (SH-SY5Y, HEK293), mouse (C2C12); settings: for relative effect of amyloid preparations (monomer, ADDL, fibril) on PDK-dependent Akt activation: comparison of preparations, SH-SY5Y-derived kinases; for effect on PDK-stimulated Akt activity / Akt phosphorylation: 10 μM
Experimental: Akt1 was immunoprecipitated (IP) overnight from 100 μg of the human brain sample or from C2C12 myotubes infected with adenovirus encoding Aβ using a 1:100 dilution of goat anti-Akt1 antibody. The following morning, 40 μl of a 50% slurry of protein G-Agarose (PGA) (Roche Applied Science) was added for an additional 1.5 hours. The beads were washed twice with wash buffer [1× phosphate buffered saline (PBS), 0.5% NP-40, 0.1 mM Na3VO4] and twice with kinase buffer [25 mM Tris (pH 7.5), 2 mM DTT, 0.1 mM Na3VO4, 10 mM MgCl2]. ATP (200 μM) and GSK-3 fusion protein (1 μg/50 μl) were added in the presence of kinase buffer, and the final reaction (50 μl) was incubated 30 minutes at 30° C. The reaction was stopped by adding 40 μl of Laemmli buffer. 20 μl of sample was loaded onto a 10% polyacrylamide gel for fractionation and western detection development.
Immunoprecipitates (IPs) of PDK1 and Akt were prepared from 100 μg of either SH-SY5Y, C2C12 myotubes or from insulin-treated cultures. ATP (200 μM), GSK-3 fusion protein (1 μg/50 μl) and kinase buffer were added to the reaction. Various Aβ peptides were finally added at 0.01, 0.1, 1, 5, 10, 20 μM. Akt activity level was otherwise determined as above.

[2] = biological target: T1, SGK (serum/glucocorticoid regulated kinase) activated by PDK (Mus musculus, UniProt Q9Z2A0); assay: PDK-stimulated SGK activity, in vitro kinase assay; assay type: biochemical; settings: 10 μM
T1 construct: Stimulated PDK was IP from insulin-treated C2C12 myotubes; endogenous in cells; host or cells: PDK from insulin-treated C2C12 myotubes
T1 sequence (Q9Z2A0 1-559): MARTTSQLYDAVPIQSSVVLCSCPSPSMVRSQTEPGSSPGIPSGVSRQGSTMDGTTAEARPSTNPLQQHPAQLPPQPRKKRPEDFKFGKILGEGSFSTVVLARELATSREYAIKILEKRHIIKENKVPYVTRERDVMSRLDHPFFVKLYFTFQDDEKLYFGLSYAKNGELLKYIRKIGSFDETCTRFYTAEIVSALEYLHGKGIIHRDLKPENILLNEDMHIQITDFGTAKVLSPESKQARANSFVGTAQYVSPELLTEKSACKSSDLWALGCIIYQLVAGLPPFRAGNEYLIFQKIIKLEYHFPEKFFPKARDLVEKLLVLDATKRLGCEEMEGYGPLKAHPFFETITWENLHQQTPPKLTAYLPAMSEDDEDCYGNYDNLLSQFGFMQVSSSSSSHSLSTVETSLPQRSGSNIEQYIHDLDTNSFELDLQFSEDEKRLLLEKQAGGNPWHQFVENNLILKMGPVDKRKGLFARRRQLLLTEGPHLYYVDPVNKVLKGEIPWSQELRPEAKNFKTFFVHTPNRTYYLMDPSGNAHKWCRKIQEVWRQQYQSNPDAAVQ
Source text: Another kinase, termed SGK (serum/glucocorticoid regulated kinase), is also activated by PDK. Similar to Akt, SGK has a PH domain and phosphorylates GSK-3 α/β (Kobayashi, T., Deak, M., Morrice, N., and Cohen, P., 1999, Characterization of the structure and regulation of two novel isoforms of serum- and glucocorticoid-induced protein kinase, Biochem J 344 Pt 1:189-197, and Tessier, M., and Woodgett, J. R., 2006, Serum and glucocorticoid-regulated protein kinases: variations on a theme, J Cell Biochem 98:1391-1407). If Aβ inhibits PH-mediated activations of Akt independent of PIP3, it is predicted to affect this mechanism too. Indeed, in FIG. 7D, ADDL-containing Aβ preparations inhibited PDK-stimulated SGK activity (lane 7 vs. 6 and 5). […] This enhanced activity was not however, interrupted by Aβ (10 μM, lane 4 vs. 3). Lastly, another kinase that converges to phosphorylate GSK, PKA (Grimes, C. A., and Jope, R. S., 2001, The multifaceted roles of glycogen synthase kinase 3beta in cellular signaling, Prog Neurobiol 65:391-426; Li, M., Wang, X., Meintzer, M. K., Laessig, T., Birnbaum, M. J., and Heidenreich, K. A., 2000, Cyclic AMP promotes neuronal survival by phosphorylation of glycogen synthase kinase 3beta, Mol Cell Biol 20:9356-9363), was tested. […] Thus, the mechanism of Aβ inhibition of Akt activation is specific to PDK-like kinases. […]

## Aβ25-35: fragment consisting of residues 25-35 of Aβ (GSNKGAIIGLM; Amyloid-beta protein 42; UniProt P05067 696-706, looked up, fragment)
C2C12 myotubes; extracellular peptide 24 hours, then insulin 0.1 μg/ml
  p-Akt (Ser473) and p-GSK-3 α/β levels after insulin: not affected

## Fibrillar Aβ: fibrillar Aβ42 made in 10 mM HCl, 37° C., 24 hr
[1]; listed as fibril-containing preparations
  relative effect of amyloid preparations (monomer, ADDL, fibril) on PDK-dependent Akt activation: little toxicity; also recorded: least active
[1]; listed as fibrillated preparations of Aβ
  relative effect of amyloid preparations (monomer, ADDL, fibril) on PDK-dependent Akt activation: little effect

## ADDL: Aβ-derived diffusible ligands, oligomer-enriched Aβ42 preparation (24 to 48 hr at 4° C.)
[2]
  PDK-stimulated SGK activity: inhibited SGK activation
[1]; 5 μM (or doses up to 5 μM)
  effect on PDK-stimulated Akt activity (GSK-3 substrate phosphorylation): greatest interference
[1]
  effect on PDK-stimulated Akt activity / Akt phosphorylation: nearly eliminates
  relative effect of amyloid preparations (monomer, ADDL, fibril) on PDK-dependent Akt activation: more potent inhibitors
[1]; listed as ADDL preparations
  effect on PDK-stimulated Akt activity / Akt phosphorylation: near total inhibition
[1]; listed as ADDL-containing Aβ preparations
  relative effect of amyloid preparations (monomer, ADDL, fibril) on PDK-dependent Akt activation: additively more injurious
[1]; listed as ADDLs
  relative effect of amyloid preparations (monomer, ADDL, fibril) on PDK-dependent Akt activation: more toxic; also recorded: significantly prevented; also recorded: significantly greater inhibition

## Insulin: insulin used to stimulate the Akt pathway
C2C12 myotubes; 0.1 μg/ml, 15 min
  levels of p-Akt (Ser473) and Akt activity (p-GSK-3 α/β): significantly increased

## CCCCCCCCCCCCCCCC(=O)OC[C@H](COP(=O)(O)OC1[C@H](O)[C@H](OP(=O)(O)O)C(OP(=O)(O)O)[C@H](OP(=O)(O)O)[C@H]1O)OC(=O)CCCCCCCCCCCCCCC (stereo partly shown) [PIP3, phosphatidylinositol-tris-3,4,5-phosphate, dipalmitoyl]
[1]; 50 nM added, PP2A-treated Akt
  PDK-dependent Akt1 phosphorylation and activity: extra increase

## PTEN: Recombinant Phosphatase and Tensin Homolog, lipid phosphatase (R & D Systems)
[1]; preincubation 10.6 μg/ml, 15 min at 37° C., then washing
  PDK stimulation of Akt activity after preincubation of the kinase beads: eliminated any stimulation of Akt activity
